Experimental data reported in BigSolDB 2.1.

CC(=O)Oc1ccc(C(c2ccc(OC(C)=O)cc2)c2ccccn2)cc1
solubility (mole fraction)
Details | 288.15 K | 293.15 K | 298.15 K | 303.15 K | 308.15 K
in DMAc | 0.0391 | 0.0448 | 0.0512 | 0.0583 | 0.0659
in DMF | 0.0372 | 0.0429 | 0.0492 | 0.0561 | 0.0638
in NMP | 0.0643 | 0.0703 | 0.0768 | 0.0837 | 0.0909
in THF | 0.0192 | 0.0237 | 0.0291 | 0.0355 | 0.0431
in acetone | 0.0124 | 0.0154 | 0.0189 | 0.0231 | 0.0281
in acetonitrile | 0.0112 | 0.0135 | 0.0162 | 0.0193 | 0.0229
in ethanol | 0.000471 | 0.000639 | 0.000852 | 0.00113 | 0.00149
in isopropanol | 0.000238 | 0.000327 | 0.000443 | 0.000599 | 0.000804
in methanol | 0.000961 | 0.00123 | 0.00155 | 0.00196 | 0.00245
in n-butanol | 0.000393 | 0.000537 | 0.000719 | 0.000968 | 0.00128
in n-propanol | 0.000462 | 0.000608 | 0.000788 | 0.00102 | 0.00131
in transcutol | 0.00761 | 0.0092 | 0.011 | 0.0131 | 0.0156
in water | 1.32e-07 | 1.56e-07 | 1.83e-07 | 2.14e-07 | 2.49e-07

Details | solubility (mole fraction)
in PEG-400, 288.15 K | 0.0132
in PEG-400, 293.15 K | 0.0154
in PEG-400, 298.15 K | 0.0179
in PEG-400, 303.15 K | 0.0206
in PEG-400, 308.15 K | 0.0237
